# In PubChem BioAssay (NCI):
#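 Interpolation was linear, between the two tested concentrations surrounding the appropriate level; five concentrations were tested over 48 hours in 96-well plates. TGI: concentration producing complete growth inhibition.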
# How the values were obtained:
# Experiment in all cases: NCI-60 cell line screen, 48 h
# SF-295 CNS = tested on: SF-295 CNS
# OVCAR-4 ovarian = tested on: OVCAR-4 ovarian
# IGROV1 ovarian = tested on: IGROV1 ovarian
# MALME-3M melanoma = tested on: MALME-3M melanoma
# UACC-62 melanoma = tested on: UACC-62 melanoma
# SF-539 CNS = tested on: SF-539 CNS
# SK-MEL-2 melanoma = tested on: SK-MEL-2 melanoma
# RXF-631 renal = tested on: RXF-631 renal
# OVCAR-5 ovarian = tested on: OVCAR-5 ovarian
# DMS 273 small cell lung = tested on: DMS 273 small cell lung
# EKVX NSCLC = tested on: EKVX NSCLC
# M14 melanoma = tested on: M14 melanoma
# UO-31 renal = tested on: UO-31 renal
# HCT-15 colon = tested on: HCT-15 colon
# SNB-75 CNS = tested on: SNB-75 CNS
# KM20L2 colon = tested on: KM20L2 colon
# K-562 leukemia = tested on: K-562 leukemia
# NCI-H23 lung = tested on: NCI-H23 lung
# NCI-H226 lung = tested on: NCI-H226 lung
# ACHN renal = tested on: ACHN renal
# COLO 205 colon = tested on: COLO 205 colon
# HL-60(TB) leukemia = tested on: HL-60(TB) leukemia
# SK-MEL-5 melanoma = tested on: SK-MEL-5 melanoma
# OVCAR-3 ovarian = tested on: OVCAR-3 ovarian
# KM12 colon = tested on: KM12 colon
# CAKI-1 renal = tested on: CAKI-1 renal
# U251 CNS = tested on: U251 CNS
# A549 NSCLC = tested on: A549 NSCLC
# SNB-19 CNS = tested on: SNB-19 CNS
# HCC-2998 colon = tested on: HCC-2998 colon
# CCRF-CEM leukemia = tested on: CCRF-CEM leukemia
# NCI-H522 lung = tested on: NCI-H522 lung
# MOLT-4 leukemia = tested on: MOLT-4 leukemia
# 786-0 renal = tested on: 786-0 renal
# TK-10 renal = tested on: TK-10 renal
# HT29 colon = tested on: HT29 colon
# SN12C renal = tested on: SN12C renal
# SK-OV-3 ovarian = tested on: SK-OV-3 ovarian
# SF-268 CNS = tested on: SF-268 CNS
# M19-MEL melanoma = tested on: M19-MEL melanoma
# LXFL 529 NSCLC = tested on: LXFL 529 NSCLC
# HOP-18 NSCLC = tested on: HOP-18 NSCLC
# DLD-1 colon = tested on: DLD-1 colon
# LOX IMVI melanoma = tested on: LOX IMVI melanoma
# SK-MEL-28 melanoma = tested on: SK-MEL-28 melanoma
# HCT-116 colon = tested on: HCT-116 colon
# DMS 114 small cell lung = tested on: DMS 114 small cell lung
# SR leukemia = tested on: SR leukemia
# SW-620 colon = tested on: SW-620 colon
# HOP-92 NSCLC = tested on: HOP-92 NSCLC
# OVCAR-8 ovarian = tested on: OVCAR-8 ovarian
# UACC-257 melanoma = tested on: UACC-257 melanoma
# NCI-H460 lung = tested on: NCI-H460 lung
# A498 renal = tested on: A498 renal
# HOP-62 NSCLC = tested on: HOP-62 NSCLC
# RXF 393 renal = tested on: RXF 393 renal
# SNB-78 CNS = tested on: SNB-78 CNS
# RPMI-8226 leukemia = tested on: RPMI-8226 leukemia
smiles,measurement,setting,value
COC(=O)C1Cc2c([nH]c3ccccc23)C(C2CCCCC2)N1 (stereo unspecified),TGI,SF-295 CNS,> 100 µM
same,TGI,OVCAR-4 ovarian,> 100 µM
same,TGI,IGROV1 ovarian,> 100 µM
same,TGI,MALME-3M melanoma,> 100 µM
same,TGI,UACC-62 melanoma,> 100 µM
same,TGI,SF-539 CNS,> 100 µM
same,TGI,SK-MEL-2 melanoma,> 100 µM
same,TGI,RXF-631 renal,> 100 µM
same,TGI,OVCAR-5 ovarian,> 100 µM
same,TGI,DMS 273 small cell lung,> 100 µM
same,TGI,EKVX NSCLC,> 100 µM
same,TGI,M14 melanoma,> 100 µM
same,TGI,UO-31 renal,> 100 µM
same,TGI,HCT-15 colon,> 100 µM
same,TGI,SNB-75 CNS,> 100 µM
same,TGI,KM20L2 colon,> 100 µM
same,TGI,K-562 leukemia,> 100 µM
same,TGI,NCI-H23 lung,> 100 µM
same,TGI,NCI-H226 lung,> 100 µM
same,TGI,ACHN renal,> 100 µM
same,TGI,COLO 205 colon,> 100 µM
same,TGI,HL-60(TB) leukemia,> 100 µM
same,TGI,SK-MEL-5 melanoma,> 100 µM
same,TGI,OVCAR-3 ovarian,> 100 µM
same,TGI,KM12 colon,> 100 µM
same,TGI,CAKI-1 renal,> 100 µM
same,TGI,U251 CNS,> 100 µM
same,TGI,A549 NSCLC,> 100 µM
same,TGI,SNB-19 CNS,> 100 µM
same,TGI,HCC-2998 colon,> 100 µM
same,TGI,CCRF-CEM leukemia,> 100 µM
same,TGI,NCI-H522 lung,> 100 µM
same,TGI,MOLT-4 leukemia,> 100 µM
same,TGI,786-0 renal,> 100 µM
same,TGI,TK-10 renal,> 100 µM
same,TGI,HT29 colon,> 100 µM
same,TGI,SN12C renal,> 100 µM
same,TGI,SK-OV-3 ovarian,> 100 µM
same,TGI,SF-268 CNS,> 100 µM
same,TGI,M19-MEL melanoma,> 100 µM
same,TGI,LXFL 529 NSCLC,> 100 µM
same,TGI,HOP-18 NSCLC,> 100 µM
same,TGI,DLD-1 colon,> 100 µM
same,TGI,LOX IMVI melanoma,> 100 µM
same,TGI,SK-MEL-28 melanoma,> 100 µM
same,TGI,HCT-116 colon,> 100 µM
same,TGI,DMS 114 small cell lung,> 100 µM
same,TGI,SR leukemia,> 100 µM
same,TGI,SW-620 colon,> 100 µM
same,TGI,HOP-92 NSCLC,> 100 µM
same,TGI,OVCAR-8 ovarian,> 100 µM
same,TGI,UACC-257 melanoma,> 100 µM
same,TGI,NCI-H460 lung,> 100 µM
O=C(NO)C(=O)Nc1cc(Cl)ccc1Cl,TGI,SF-295 CNS,> 100 µM
same,TGI,OVCAR-4 ovarian,> 100 µM
same,TGI,IGROV1 ovarian,55.3 µM
same,TGI,MALME-3M melanoma,> 100 µM
same,TGI,UACC-62 melanoma,> 100 µM
same,TGI,SF-539 CNS,> 100 µM
same,TGI,SK-MEL-2 melanoma,> 100 µM
same,TGI,RXF-631 renal,> 100 µM
same,TGI,OVCAR-5 ovarian,> 100 µM
same,TGI,DMS 273 small cell lung,> 100 µM
same,TGI,EKVX NSCLC,> 100 µM
same,TGI,M14 melanoma,> 100 µM
same,TGI,UO-31 renal,51 µM
same,TGI,HCT-15 colon,> 100 µM
same,TGI,SNB-75 CNS,> 100 µM
same,TGI,KM20L2 colon,> 100 µM
same,TGI,K-562 leukemia,> 100 µM
same,TGI,A498 renal,> 100 µM
same,TGI,NCI-H23 lung,> 100 µM
same,TGI,NCI-H226 lung,> 100 µM
same,TGI,ACHN renal,> 100 µM
same,TGI,COLO 205 colon,> 100 µM
same,TGI,HL-60(TB) leukemia,> 100 µM
same,TGI,SK-MEL-5 melanoma,> 100 µM
same,TGI,HOP-62 NSCLC,> 100 µM
same,TGI,OVCAR-3 ovarian,> 100 µM
same,TGI,KM12 colon,> 100 µM
same,TGI,CAKI-1 renal,> 100 µM
same,TGI,U251 CNS,> 100 µM
same,TGI,A549 NSCLC,> 100 µM
same,TGI,SNB-19 CNS,> 100 µM
same,TGI,HCC-2998 colon,> 100 µM
same,TGI,CCRF-CEM leukemia,> 100 µM
same,TGI,NCI-H522 lung,49.1 µM
same,TGI,MOLT-4 leukemia,> 100 µM
same,TGI,786-0 renal,> 100 µM
same,TGI,TK-10 renal,> 100 µM
same,TGI,HT29 colon,> 100 µM
same,TGI,SN12C renal,> 100 µM
same,TGI,SK-OV-3 ovarian,> 100 µM
same,TGI,SF-268 CNS,> 100 µM
same,TGI,M19-MEL melanoma,> 100 µM
same,TGI,LXFL 529 NSCLC,> 100 µM
same,TGI,HOP-18 NSCLC,> 100 µM
same,TGI,DLD-1 colon,> 100 µM
same,TGI,LOX IMVI melanoma,> 100 µM
same,TGI,SK-MEL-28 melanoma,> 100 µM
same,TGI,HCT-116 colon,> 100 µM
same,TGI,DMS 114 small cell lung,> 100 µM
same,TGI,SR leukemia,> 100 µM
same,TGI,RXF 393 renal,> 100 µM
same,TGI,SW-620 colon,> 100 µM
same,TGI,HOP-92 NSCLC,> 100 µM
same,TGI,OVCAR-8 ovarian,> 100 µM
same,TGI,UACC-257 melanoma,> 100 µM
same,TGI,SNB-78 CNS,> 100 µM
same,TGI,NCI-H460 lung,> 100 µM
same,TGI,RPMI-8226 leukemia,> 100 µM
